PMC9696366, “Flavones, Flavonols, Lignans, and Caffeic Acid Derivatives from Dracocephalum moldavica and Their In Vitro Effects on Multiple Myeloma and Acute Myeloid Leukemia” (International Journal of Molecular Sciences, 2022)

Legend:
Molm-13 cells [1] = assay: Apoptosis measurement (AnnexinV/PI staining) on AML cells; assay type: cell-based; conditions: for EC50: best-fit model; for viability at 12.5 µM: Molm-13, 12.5 µM; for viability at 12.5 µM / viability at 25 µM / viability at 50 µM: 48 h, read-out: % Alive (cells alive of control); for viability at 25 µM: Molm-13, 25 µM; for viability at 50 µM: Molm-13, 50 µM; for Cytotoxic effect / induction of apoptosis (in words): Molm-13, 12.5-50 µM
Experimental: (§1) Cytotoxicity was measured as induction of apoptosis in myeloma cell line KMS-12-PE and AML cell line Molm-13, staining the cells with AnnexinV-fluorescein isothiocyanate (AnnexinV-FITC) and propidium iodide (PI). Cell lines were purchased from DSMZ (Braunschweig, Germany) and routinely fingerprinted and tested for mycoplasma negativity. All cell lines were grown in RPMI-1640 medium (Life Technologies, Paisley, UK), and supplemented with 10% fetal calf serum (FCS; PAA, Linz, Austria), L-glutamine 100 µg/mL, and penicillin-streptomycin 100 U/mL. Compounds were dissolved in DMSO at a stock concentration of 50 mM and stored at −20 °C. Briefly, 0.5 × 10^6 cancer cells/mL were incubated for 24 h and 48 h with or without the tested compounds at indicated concentrations. Analyses were performed in duplicates and a solvent control was included. The extent of non-apoptotic cells (AnnexinV/propidium iodide negativity) was calculated as the percentage of viable cells in respect to the untreated control. Data are shown as the mean percentage of viable cells +/− standard deviation (SD) (error bars).

KMS-12-PE cells [2] = assay: Apoptosis measurement (AnnexinV/PI staining) on myeloma cells; assay type: cell-based; conditions: for viability at 12.5 µM / viability at 25 µM / viability at 50 µM / EC50: 48 h; for viability at 12.5 µM / viability at 25 µM / viability at 50 µM: read-out: % Alive (cells alive of control); for EC50: best-fit model; for Cytotoxic effect / induction of apoptosis (in words): 12.5-50 µM
Experimental: as §1

Molm-13 cells [3] = assay: Proliferation, modified MTT assay (EZ4U) on AML cells; assay type: cell-based; conditions: 48 h; for inhibition at 2.5 µM: Homo sapiens
Experimental: (§2) Proliferation was measured using a modified MTT assay (EZ4U kit, Biomedica, Vienna, Austria) according to the manufacturer’s instructions. In brief, 2.5 × 10^4 (Molm-13)—5.0 × 10^4 cells (KMS-12-PE cells) were seeded in 96-well plates and substances were added as indicated. Different concentrations are due to the different doubling time of the cells (24 h vs. 48 h). Cells were incubated for 48 h and during the last 7 h of incubation, 3-(4,5-dimethylthiazol-2-yl)-2,5-diphenyltetrazolium bromide was added as a substrate. Reduction of the tetrazolium salt to formazan by the mitochondrial activity of the growing cells was measured as optical density at 492 nm (with 620 nm as reference) on a plate reader. Proliferation (mean +/− SD) was calculated as the percentage of control (without substances). Concentrations used were 10 µM/5 µM/2.5 µM for all substances. Gilteritinib was used as a positive control at 2.5 µM.

KMS-12-PE cells [4] = assay: Proliferation, modified MTT assay (EZ4U) on myeloma cells; assay type: cell-based; conditions: 10 to 2.5 µM (gilteritinib 2.5 µM), 48 h
Experimental: as §2

FLT3 = target: T1, FLT3 (Homo sapiens, UniProt P36888); assay: FLT3 kinase assay (Z'-LYTE); assay type: biochemical; conditions: 6.25 nM (lowest concentration), 20 ng FLT3 protein
T1 construct: purchased Thermo Fisher Scientific Inc. (Waltham, MA, USA)
T1 sequence (P36888 27-993): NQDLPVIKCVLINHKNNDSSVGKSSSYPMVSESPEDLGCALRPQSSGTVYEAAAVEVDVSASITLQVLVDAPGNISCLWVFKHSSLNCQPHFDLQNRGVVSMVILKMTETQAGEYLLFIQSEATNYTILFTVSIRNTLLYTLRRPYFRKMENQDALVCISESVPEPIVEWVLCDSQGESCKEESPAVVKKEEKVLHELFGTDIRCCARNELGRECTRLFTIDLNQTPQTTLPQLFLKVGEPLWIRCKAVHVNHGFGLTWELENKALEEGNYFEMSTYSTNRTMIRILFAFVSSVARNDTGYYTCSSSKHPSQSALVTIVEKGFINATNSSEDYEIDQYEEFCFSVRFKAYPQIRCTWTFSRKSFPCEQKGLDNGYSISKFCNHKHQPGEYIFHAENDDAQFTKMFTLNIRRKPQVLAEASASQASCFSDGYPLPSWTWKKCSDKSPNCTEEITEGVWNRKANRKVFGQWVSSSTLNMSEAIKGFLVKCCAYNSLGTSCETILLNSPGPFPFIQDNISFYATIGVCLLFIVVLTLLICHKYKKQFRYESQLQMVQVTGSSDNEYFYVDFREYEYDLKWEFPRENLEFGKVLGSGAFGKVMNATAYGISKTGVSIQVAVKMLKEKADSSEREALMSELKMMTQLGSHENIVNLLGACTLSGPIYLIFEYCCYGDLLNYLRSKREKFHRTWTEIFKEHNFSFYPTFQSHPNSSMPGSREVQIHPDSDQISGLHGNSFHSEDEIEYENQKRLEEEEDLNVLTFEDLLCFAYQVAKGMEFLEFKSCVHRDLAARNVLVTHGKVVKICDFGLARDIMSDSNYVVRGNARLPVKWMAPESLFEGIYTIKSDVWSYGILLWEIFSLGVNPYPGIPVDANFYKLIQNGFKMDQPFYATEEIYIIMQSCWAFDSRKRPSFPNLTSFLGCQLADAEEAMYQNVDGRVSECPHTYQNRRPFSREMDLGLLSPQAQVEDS
Experimental: FLT3 inhibitory activity of compounds 1 and 3 was determined using the Z’-LYTE screening protocol. Z’-LYTE Kinase Assay—Tyrosine 2 Peptide Kit and FLT3 were purchased from Thermo Fisher Scientific Inc. (Waltham, MA, USA). The assay was performed according to the manufacturer’s instructions using a kinase buffer (50 mM HEPES pH 7.5, 0.01% BRIJ-35, 10 mM MgCl2, 1 mM EGTA) containing 0.01 to 20 ng of FLT3. Compounds were measured at concentrations of 50 nM/25 nM/12.5 nM/6.25 nM using gilteritinib as a positive control.

[5] = Molm-13, 2.5 µM, compared to untreated cells

| EC50 (Molm-13 cells [1]; Homo sapiens, MOLM-13, 48 h) [µM] | EC50 (KMS-12-PE cells [2]; Homo sapiens) [µM] | EC50 (Molm-13 cells [1]; Molm-13, 48 h) [µM] | inhibition at 0.00625 µM (FLT3) [%] | EC50 (KMS-12-PE cells [2]) [µM] | SMILES | viability at 12.5 µM (Molm-13 cells [1]; Homo sapiens) [%] | viability at 25 µM (Molm-13 cells [1]; Homo sapiens) [%] | viability at 50 µM (Molm-13 cells [1]; Homo sapiens) [%] | viability at 12.5 µM (KMS-12-PE cells [2]; Homo sapiens) [%] | viability at 25 µM (KMS-12-PE cells [2]; Homo sapiens) [%] | viability at 50 µM (KMS-12-PE cells [2]; Homo sapiens) [%] | Cytotoxic effect / induction of apoptosis (in words) (Molm-13 cells [1]) | Cytotoxic effect / induction of apoptosis (in words) (KMS-12-PE cells [2]) | Effect on proliferation (in words) (Molm-13 cells [3]; Molm-13, 2.5 µM, positive control) | inhibition at 2.5 µM (Molm-13 cells [3]; [5]) [%] | Inhibition of proliferation (in words) (KMS-12-PE cells [4]) | Inhibition of proliferation (Molm-13 cells [3]; Molm-13, concentrations from 10 to 2.5 µM, compared to untreated cells) |
| --- | --- | --- | --- | --- | --- | --- | --- | --- | --- | --- | --- | --- | --- | --- | --- | --- | --- |
| > 50 | > 50 | – | – | – | COc1cc([C@H]2OC[C@H]3[C@@H]2CO[C@@H]3c2ccc3c(c2)OCO3)ccc1O [Compound 9, (+)-piperitol] | 102 ± 1.3 | 100 ± 2.1 | 97.5 ± 2.4 | 102.8 ± 0.8 | 100.1 ± 0.8 | 97.1 ± 4.1 | – | – | – | – | – | – |
| > 50 | > 50 | – | – | – | COc1ccc(-c2cc(=O)c3c(O)c(OC)c(OC)cc3o2)cc1OC [Compound 2, 5-desmethylsinensetin] | 91.1 ± 3.4 | 90.9 ± 0.4 | 88.6 ± 1.8 | 94.6 ± 10.2 | 93.4 ± 9.3 | 93.1 ± 10.2 | no effects | no effects | – | – | – | – |
| – | – | – | – | – | CCc1nc(C(N)=O)c(Nc2ccc(N3CCC(N4CCN(C)CC4)CC3)c(OC)c2)nc1NC1CCOCC1 [gilteritinib, reference compound] | – | – | – | – | – | – | – | – | high effect | – | – | – |
| > 50 | > 50 | – | – | – | O=c1c(O)c(-c2ccc(O)c(O)c2)oc2cc(O)cc(O)c12 [Compound 8, quercetin] | 100 ± 2.2 | 94.4 ± 3.9 | 79.8 ± 10.2 | 96.6 ± 2.7 | 79 ± 4.8 | 43.7 ± 8.3 | induced apoptosis | induced apoptosis | – | – | – | – |
| ~22 | > 50 | 21.7 | 81 | – | COc1cc2oc(-c3ccc(O)cc3)cc(=O)c2c(O)c1OC [Compound 1, cirsimaritin] | 77.3 ± 9 | 48.4 ± 12 | 12.9 ± 4.1 | 86.8 ± 14.5 | 76.6 ± 25.6 | 58.9 ± 28.6 | induced apoptosis | induced apoptosis | – | 72 | marginally | – |
| > 50 | > 50 | – | – | – | O=C(/C=C/c1ccc(O)c(O)c1)O[C@H](Cc1ccc(O)c(O)c1)C(=O)O [Compound 12, (R)-(+)-rosmarinic acid] | 97.6 ± 3.2 | 98.5 ± 3.6 | 100.8 ± 0.6 | 100.2 ± 0.9 | 102 ± 1.5 | 98.2 ± 1.5 | – | – | – | – | – | – |
| > 50 | > 50 | – | – | – | COc1cc(/C=C/C(=O)O[C@H](Cc2ccc(O)c(O)c2)C(=O)O)ccc1O [Compound 13, (R)-(+)-3′-O-methylrosmarinic acid] | 99.6 ± 2.6 | 99.4 ± 1.9 | 97.8 ± 4 | 102 ± 1.6 | 101 ± 1.8 | 101 ± 3.4 | – | – | – | – | – | – |
| > 50 | 26 | – | – | 25.7 | COc1ccc(-c2cc(=O)c3c(O)cc(O)cc3o2)cc1O [Compound 6, diosmetin] | 91.5 ± 2.8 | 76.2 ± 6.7 | 39.8 ± 5.8 | 77.3 ± 6.9 | 44.2 ± 19 | 31.1 ± 5.3 | – | – | – | – | – | – |
| > 50 | > 50 | – | – | – | O[C@@H]1O[C@H](c2ccc3c(c2)OCO3)[C@H]2CO[C@H](c3ccc4c(c3)OCO4)[C@H]21 [Compound 10, (+)-9α-hydroxysesamin] | 101 ± 1.4 | 100 ± 2 | 98.7 ± 1.7 | 99 ± 0.6 | 96.7 ± 0.5 | 89.4 ± 0.8 | – | – | – | – | – | – |
| 42.3 | > 50 | – | – | – | O=c1cc(-c2ccc(O)c(O)c2)oc2cc(O)cc(O)c12 [Compound 5, luteolin] | 86.5 ± 5.2 | 72.4 ± 4 | 30.2 ± 13.7 | 80.3 ± 5.4 | 70.5 ± 5.6 | 50.3 ± 18.4 | – | – | – | – | – | – |
| ~28 | 45.4 | 28 | 88 | – | COc1c(OC)c(O)c2c(=O)cc(-c3ccc(O)cc3)oc2c1OC [Compound 3, xanthomicrol] | 56.4 ± 9.1 | 53.5 ± 1 | 47 ± 2.7 | 69.5 ± 16 | 62.6 ± 13.1 | 55.4 ± 13.1 | – | – | – | 84 | marginally | up to 93% |
| > 50 | > 50 | – | – | – | O=c1cc(-c2ccc(O)cc2)oc2cc(O)cc(O)c12 [Compound 4, apigenin] | 98 ± 1.6 | 89.5 ± 3.9 | 58.4 ± 14.2 | 85.5 ± 10.6 | 69.4 ± 31.3 | 59.6 ± 16.1 | – | – | – | – | – | – |
| > 50 | > 50 | – | – | – | O=C(O)/C=C/c1ccc(O)c(O)c1 [Compound 11, caffeic acid] | 96.9 ± 4.6 | 98.1 ± 3.8 | 98.8 ± 2.8 | 102 ± 1.8 | 102.5 ± 0.9 | 102.6 ± 0.5 | – | – | – | – | – | – |
| > 50 | > 50 | – | – | – | O=c1c(O)c(-c2ccc(O)cc2)oc2cc(O)cc(O)c12 [Compound 7, kaempferol] | 93.1 ± 5.1 | 83.1 ± 5.7 | 50.2 ± 11.4 | 98 ± 2.7 | 91.2 ± 15 | 76.3 ± 17.3 | induced apoptosis | induced apoptosis | – | – | – | – |
